Assay results as given in US5292737A, “N,N'-bis(sulfonamido)-2-amino-4-iminonaphthalen-1-ones and N,N'-bis(amido)-2-amino-4-iminonaphthalen-1-ones” (Sphinx Pharmaceuticals Corporation, priority 1992, dated 1994).

Experiments:
PKC isoenzyme α = target: T1, PKC isoenzyme α (Homo sapiens, UniProt P17252); test: Protein kinase C inhibition assay, PKC isoenzyme α; type: biochemical; details: read-out: IC50 PKC α
T1 construct: made in house; host or cells: baculovirus-insect cell expression system
Method: (§1) A protein kinase C (PKC) assay is designed to duplicate the in vivo conditions required for protein kinase C function. Therefore, pH, salt and cofactor concentrations are similar to physiologic levels. Either lysine rich histone H1 (H1) or Myelin basic protein (Mbp) are used in the assay as the phosphorylation acceptor-protein because they are readily available and serve as good substrates for protein kinase C. Enzyme was prepared from baculovirus-insect cell expression systems.
(§2) In the screening assay, phosphatidylserine (PS) and DAG were co-sonicated to form unilamellar and multilamellar vesicles. The concentration of lipids in the assay were suboptimal to maximize the detection potential of the assay for inhibitors or activators. Potential effector compounds were added to the assay in dimethylsulfoxide at four concentrations to give final inhibitor concentrations of 1, 10, 50, and 150 μM, respectively.
(§3) The assay was started with the addition of enzyme and stopped after 10 min by the addition of 25% trichloroacetic acid (TCA) and 1.0 mg/ml bovine serum albumin (BSA). The radioactive histone product was retained and washed on glass fiber filters that allow the unreacted P-ATP to pass through. The amount of phosphorylation was determined by measuring radioactivity with a scintillation counter. Controls were included in every assay to measure background activity in the absence of enzyme, activity in the absence of lipids, and the maximum enzyme activity with saturating levels of the activator lipids.
(§4) Results of the protein kinase C assay are shown in Table 4 in columns labeled α, βII, γ, δ, ε, and .zeta. which represent various PKC isoenzymes. Results are show as IC50, which is the concentration of test compound needed to inhibit 50% of the protein kinase C activity in controls.

PKC isoenzyme βII = target: T2, PKC isoenzyme βII (Homo sapiens, UniProt P05771); test: Protein kinase C inhibition assay, PKC isoenzyme βII; type: biochemical; details: read-out: IC50 PKC βII
T2 construct: made in house; host or cells: baculovirus-insect cell expression system
Method: as §1, §2, §3, §4

PKC isoenzyme γ = target: T3, PKC isoenzyme γ (Homo sapiens, UniProt P05129); test: Protein kinase C inhibition assay, PKC isoenzyme γ; type: biochemical; details: read-out: IC50 PKC γ
T3 construct: made in house; host or cells: baculovirus-insect cell expression system
Method: as §1, §2, §3, §4

PKC isoenzyme δ = target: T4, PKC isoenzyme δ (Homo sapiens, UniProt Q05655); test: Protein kinase C inhibition assay, PKC isoenzyme δ; type: biochemical; details: read-out: IC50 PKC δ
T4 construct: made in house; host or cells: baculovirus-insect cell expression system
Method: as §1, §2, §3, §4

PKC isoenzyme ε = target: T5, PKC isoenzyme ε (Homo sapiens, UniProt Q02156); test: Protein kinase C inhibition assay, PKC isoenzyme ε; type: biochemical; details: read-out: IC50 PKC ε
T5 construct: made in house; host or cells: baculovirus-insect cell expression system
T5 sequence (Q02156 1-737): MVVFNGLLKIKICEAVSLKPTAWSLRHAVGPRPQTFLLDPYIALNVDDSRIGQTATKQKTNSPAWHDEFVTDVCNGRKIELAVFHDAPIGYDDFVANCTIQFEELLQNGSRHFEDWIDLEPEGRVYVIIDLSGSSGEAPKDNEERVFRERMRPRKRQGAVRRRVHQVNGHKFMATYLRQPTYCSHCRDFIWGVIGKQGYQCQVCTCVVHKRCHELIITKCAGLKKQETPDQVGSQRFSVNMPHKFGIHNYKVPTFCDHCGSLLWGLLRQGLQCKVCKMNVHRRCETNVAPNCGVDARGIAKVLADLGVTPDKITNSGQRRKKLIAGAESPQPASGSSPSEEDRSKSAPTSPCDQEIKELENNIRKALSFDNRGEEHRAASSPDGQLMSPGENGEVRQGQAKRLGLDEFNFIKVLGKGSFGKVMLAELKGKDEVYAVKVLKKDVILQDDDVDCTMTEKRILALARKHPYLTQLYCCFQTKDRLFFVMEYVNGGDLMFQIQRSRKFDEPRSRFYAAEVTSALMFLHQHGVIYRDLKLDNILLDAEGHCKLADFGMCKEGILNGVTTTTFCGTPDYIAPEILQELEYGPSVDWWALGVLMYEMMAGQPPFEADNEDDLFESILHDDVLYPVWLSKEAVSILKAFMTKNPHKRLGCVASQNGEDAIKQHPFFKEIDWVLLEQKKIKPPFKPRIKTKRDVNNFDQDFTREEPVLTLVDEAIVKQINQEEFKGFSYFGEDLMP
Method: as §1, §2, §3, §4

PKC isoenzyme ζ = target: T6, PKC isoenzyme ζ (Homo sapiens, UniProt Q05513); test: Protein kinase C inhibition assay, PKC isoenzyme ζ; type: biochemical; details: read-out: IC50 PKC .zeta.
T6 construct: made in house; host or cells: baculovirus-insect cell expression system
T6 sequence (Q05513 1-592): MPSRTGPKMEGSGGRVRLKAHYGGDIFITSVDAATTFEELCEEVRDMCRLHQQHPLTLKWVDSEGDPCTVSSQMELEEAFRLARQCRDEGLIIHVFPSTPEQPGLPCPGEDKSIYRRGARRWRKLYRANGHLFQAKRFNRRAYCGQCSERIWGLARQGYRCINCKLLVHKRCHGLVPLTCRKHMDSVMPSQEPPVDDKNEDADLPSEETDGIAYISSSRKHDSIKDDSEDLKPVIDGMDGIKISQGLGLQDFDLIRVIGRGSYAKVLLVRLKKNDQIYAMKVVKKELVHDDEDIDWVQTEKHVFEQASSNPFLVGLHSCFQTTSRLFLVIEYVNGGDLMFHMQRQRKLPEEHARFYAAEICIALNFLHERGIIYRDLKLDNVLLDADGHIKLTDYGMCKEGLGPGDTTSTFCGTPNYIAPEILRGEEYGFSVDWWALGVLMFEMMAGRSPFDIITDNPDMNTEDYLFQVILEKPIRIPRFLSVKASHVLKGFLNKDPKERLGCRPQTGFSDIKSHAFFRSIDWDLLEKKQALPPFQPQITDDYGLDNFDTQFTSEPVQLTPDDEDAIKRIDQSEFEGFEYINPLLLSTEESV
Method: as §1, §2, §3, §4

[1] = target: cAMP dependent protein kinase (PKA); test: cAMP Dependent Protein Kinase (PKA) Assay; type: biochemical; details: for IC50: catalytic subunit of PKA
Method: Compounds found to be inhibitors of protein kinase C were tested for inhibitory activity against cAMP dependent protein kinase (PKA). This enzyme, like protein kinase C, plays an important role in cell-cell communication and is activated by a second messenger, cAMP. Secondary screening against PKA is useful for ascertaining the selectivity of the compounds of the invention.
The catalytic subunit of PKA (Sigma Chemical Company, St. Louis, Mo.) was mixed with buffer before addition of the inhibitor in dimethylsulfoxide (DMSO). Potential inhibitor compounds were added to the assay in dimethylsulfoxide at two concentrations to give final inhibitor concentrations of 30 and 150 μM, respectively. The assay was started by the addition of ^32 P-ATP and the reaction was allowed to proceed for 10 min before stopping with 25% trichloroacetic acid (TCA) and 1.0 mg/ml bovine serum albumin (BSA). Phosphorylated protein was then isolated by filtration and the radioactivity was counted by a beta scintillation counter.

[2] = tested on: normal human epidermal keratinocyte (NHEK) cells; test: Human Keratinocyte Inhibition (3H TdR Assay); type: cell-based; details: Homo sapiens, 24 h incubation, 3H-thymidine
Method: Proliferating normal human epidermal keratinocyte (NHEK) cells were obtained in the second passage and grown in keratinocyte growth medium, KGM (Clonetics, Inc.) at 37° C., 5% CO2. The cells were trypsinized (0.25%), centrifuged, counted with a hemocytometer, and seeded at a concentration of 5000 cells in 100 μl well in a 96-well microtiter plate.
After the cells were allowed to attach to the microtiter plate overnight, test agents were titrated to determine the dose response. This was done by adding each test agent dilution in quadruplicate to the plate at 2× final concentration in 100 μl to bring the total volume of each well to 200 μl. Culture media with no test agent added was used as a normal control. Duplicate sets of plates were established.
After twenty-four hours of incubation with test compounds 37° C. and 5% CO2, […] of 0.01 mCi/ml tritiated thymidine (New England Nuclear) was added to each well and allowed to incubate for another 4 hours under the same conditions.
Supernatant was aspirated and discarded and […] of 0.05% trypsin (Gibco) was added to each cell. Cells were checked microscopically to determine detachment from surfaces and then harvested onto glass filters. The filters were then placed in vials to which scintillant was added and counted for one minute each in a scintillation counter.
Determine mean cpm of wells containing test agent (n=4) or KGM control (n=16). Calculate % of control by the formula: [formula]
The IC50, or connection necessary to inhibit 50% of control, of each test agent was determined by plotting % control vs log concentration for each dilution and then linear forecasting the 50% control value onto the X axis on a Quatro Pro computer program. Only regression values with a correlation coefficient greater than 0.9 were considered acceptable.

T2 sequence (P05771 1-673 isoform P05771-2): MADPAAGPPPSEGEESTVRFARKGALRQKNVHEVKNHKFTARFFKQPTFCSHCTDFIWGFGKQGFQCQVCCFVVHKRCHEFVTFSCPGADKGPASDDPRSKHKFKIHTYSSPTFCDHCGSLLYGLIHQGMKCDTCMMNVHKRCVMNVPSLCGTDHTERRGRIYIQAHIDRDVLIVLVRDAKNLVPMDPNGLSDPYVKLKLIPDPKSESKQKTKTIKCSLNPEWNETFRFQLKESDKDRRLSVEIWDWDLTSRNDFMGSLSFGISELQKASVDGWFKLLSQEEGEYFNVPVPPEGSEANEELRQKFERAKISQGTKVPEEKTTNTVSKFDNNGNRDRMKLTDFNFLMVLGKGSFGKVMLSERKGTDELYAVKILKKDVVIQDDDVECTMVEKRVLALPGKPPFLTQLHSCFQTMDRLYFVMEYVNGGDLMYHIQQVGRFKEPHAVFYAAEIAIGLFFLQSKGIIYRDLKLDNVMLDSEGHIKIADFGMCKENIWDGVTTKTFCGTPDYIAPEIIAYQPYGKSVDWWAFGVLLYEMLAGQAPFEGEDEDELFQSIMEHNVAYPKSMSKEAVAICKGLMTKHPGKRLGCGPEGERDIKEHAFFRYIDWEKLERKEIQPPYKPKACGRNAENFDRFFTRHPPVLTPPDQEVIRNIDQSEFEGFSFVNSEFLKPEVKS
T4 sequence (Q05655 whole entry): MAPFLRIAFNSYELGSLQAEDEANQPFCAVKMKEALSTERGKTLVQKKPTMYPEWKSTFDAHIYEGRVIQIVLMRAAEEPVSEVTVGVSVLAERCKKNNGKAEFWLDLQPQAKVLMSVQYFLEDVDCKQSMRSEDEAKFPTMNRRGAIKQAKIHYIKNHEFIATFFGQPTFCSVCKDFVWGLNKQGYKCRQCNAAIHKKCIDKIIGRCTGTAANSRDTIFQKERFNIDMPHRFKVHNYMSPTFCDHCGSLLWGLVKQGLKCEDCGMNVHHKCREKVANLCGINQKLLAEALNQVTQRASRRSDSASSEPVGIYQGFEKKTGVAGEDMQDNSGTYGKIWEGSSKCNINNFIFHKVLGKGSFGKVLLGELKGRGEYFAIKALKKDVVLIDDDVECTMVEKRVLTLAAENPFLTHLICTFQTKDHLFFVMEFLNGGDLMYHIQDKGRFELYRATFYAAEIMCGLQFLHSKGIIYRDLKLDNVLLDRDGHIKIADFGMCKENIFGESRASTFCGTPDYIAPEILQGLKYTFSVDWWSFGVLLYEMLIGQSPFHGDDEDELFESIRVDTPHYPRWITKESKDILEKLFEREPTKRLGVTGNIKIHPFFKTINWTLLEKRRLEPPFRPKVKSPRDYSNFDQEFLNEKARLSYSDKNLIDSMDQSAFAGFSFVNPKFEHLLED

IC50 (PKC isoenzyme α) [µM]	IC50 (PKC isoenzyme βII) [µM]	IC50 (PKC isoenzyme γ) [µM]	IC50 (PKC isoenzyme δ) [µM]	IC50 (PKC isoenzyme ε) [µM]	IC50 (PKC isoenzyme ζ) [µM]	IC50 [1] [µM]	effect on PKA activity ([1]; result in words)	SMILES	IC50 [2] [µM]
117	138	118	139	> 150	26	> 150	did not effect on PKA activity	CCCCCCCCCCCCCCCCNS(=O)(=O)c1ccc(N=C2C=C(Nc3ccc(S(=O)(=O)NCCCCCCCCCCCCCCCC)cc3)C(=O)c3ccccc32)cc1 [Compound 3o]	3.8
113	> 150	24	> 150	> 150	37	111	–	O=C1C(Nc2ccc(S(=O)(=O)Nc3ncccn3)cc2)=CC(=Nc2ccc(S(=O)(=O)Nc3ncccn3)cc2)c2ccccc21 [Compound 3k]	1.8
